Source: patent US20200352905A1, “6-(2,4-DICHLOROPHENYL)-5-[4-[(3S)-1-(3-FLUOROPROPYL)PYRROLIDIN-3-YL]OXYPHENYL]-8,9-DIHYDRO-7H-BENZO[7]ANNULENE-2-CARBOXYLIC ACID FOR USE IN METASTATIC OR ADVANCED BREAST CANCER PATIENTS” (SANOFI, priority 2019, published 2020)

What was measured:
[1] = TED14856 Part B (dose expansion, 400 mg QD): safety, TEAEs; assay type: in vivo, human
Method: Part B: Dose expansion study to evaluate the efficacy, safety, PK and PD of compound (1) administered at the RD (from Part A). […] A BID regimen (without omission on Day 2) may also be explored if found to be needed. Safety population includes all patients exposed to at least one dose of the study treatment. Treatment emergent adverse events (TEAEs) are analyzed according to current version of the Medical Dictionary for Regulatory Activities (MedDRA) dictionary. Laboratory abnormalities are analyzed according to the NCI-CTCAE v.4.03. Type, frequency, seriousness, severity and relatedness of study treatment TEAEs is analyzed on the safety population for each dose level. Similar analyses as for the escalation phase shall be performed.

[2] = test system: ER-positive and HER2-negative advanced breast cancer; test: TED14856 Part B: antitumor activity per RECIST v1.1 by Independent Central Review
Method: ORR: antitumor activity as documented by tumor response (CR or PR) defined by RECIST v1.1 determined by Independent Central Review (ICR).
The signal extinction between baseline and on study treatment ^18FES-PET scans constitute the PD readout of the ER engagement. No ^18FES-PET or FDG PET/CT imaging is performed in Part B.
Patients with an early progression as per RECIST v1.1 or who died from disease progression are evaluable for response.

[3] = test system: ER-positive and HER2-negative advanced breast cancer; test: TED14856 pooled population (Part A >=150 mg and Part B): post-hoc efficacy analyses and sub-populations; settings: for Best Overall Response: Complete Response (CR), number of patients / Best Overall Response: Partial Response (PR), % of patients / Best Overall Response: Partial Response (PR), number of patients / Best Overall Response: Progressive Disease (PD), % of patients / Best Overall Response: Progressive Disease (PD), number of patients / Best Overall Response: Stable Disease (SD), % of patients / Best Overall Response: Stable Disease (SD), number of patients / Clinical Benefit Rate, % of patients / Clinical Benefit Rate, number of patients / Overall Response Rate (confirmed CR and PR), % of patients / Overall Response Rate (confirmed CR and PR), number of patients: no prior mTOR, CDK4/6, fulvestrant; for Clinical Benefit Rate (CBR): pooled population
[4] = All, pooled Part A ≥150 mg and Part B 400 mg (N = 14)
[5] = TED14856 2017-2019, pooled population n=59, setting 2-9L, prior CDK4/6, mTOR, fulvestrant allowed
[6] = TED14856 2017-2019, sub-population n=14, setting 2L+, no prior CDK4/6, mTOR, fulvestrant
[7] = TED14856 2017-2019, sub-population n=32, setting 3L, prior CDK4/6 allowed, prior mTOR not allowed, prior fulvestrant allowed
[8] = sub-population of 14 patients with neither prior targeted therapies nor SERD (3/14)

## O=C(O)c1ccc2c(c1)CCCC(c1ccc(Cl)cc1Cl)=C2c1ccc(O[C@H]2CCN(CCCF)C2)cc1 [compound (1), 6-(2,4-dichlorophenyl)-5-[4-[(3S)-1-(3-fluoropropyl)pyrrolidin-3-yl]oxyphenyl]-8,9-dihydro-7H-benzo[7]annulene-2-carboxylic acid]
[1]; Part B
  Grade 3 laboratory abnormality: ALK increase: 2 patients
  Grade 3 laboratory abnormality: ALT increase: 4 patients
  Grade 3 laboratory abnormality: AST increase: 6 patients
  Grade 3 laboratory abnormality: anemia: 1 patients
  Grade 3 laboratory abnormality: bilirubin increase: 3 patients
  Grade 3 laboratory abnormality: hypercalcemia: 1 patients
  Grade 3 laboratory abnormality: hyponatremia: 2 patients
  Grade 3 laboratory abnormality: hypophosphatemia: 2 patients
  Grade 3 laboratory abnormality: lymphopenia: 5 patients
  Grade 3 laboratory abnormality: neutropenia: 1 patients
  Grade 4 laboratory abnormality: hypocalcemia: 1 patients
  Grade 4 laboratory abnormality: hypokalemia: 1 patients
  Grade 4 laboratory abnormality: hyponatremia: 1 patients
[1]; Part B, 400 mg, N=49
  Patients with Gr3 TEAE: Abdominal pain: 0 n
  Patients with Gr3 TEAE: Abdominal pain upper: 0 n
  Patients with Gr3 TEAE: Arthralgia: 0 n
  Patients with Gr3 TEAE: Asthenia: 0 n
  Patients with Gr3 TEAE: Back pain: 0 n
  Patients with Gr3 TEAE: Constipation: 0 n
  Patients with Gr3 TEAE: Cough: 0 n
  Patients with Gr3 TEAE: Decreased appetite: 0 n
  Patients with Gr3 TEAE: Depression: 0 n
  Patients with Gr3 TEAE: Diarrhoea: 0 n
  Patients with Gr3 TEAE: Dry skin: 0 n
  Patients with Gr3 TEAE: Dyspnoea: 0 n
  Patients with Gr3 TEAE: Gastroesophageal reflux disease: 0 n
  Patients with Gr3 TEAE: Headache: 0 n
  Patients with Gr3 TEAE: Hot flush: 0 n
  Patients with Gr3 TEAE: Hypertension: 0 n
  Patients with Gr3 TEAE: Musculoskeletal pain: 0 n
  Patients with Gr3 TEAE: Nasopharyngitis: 0 n
  Patients with Gr3 TEAE: Pyrexia: 0 n
  Patients with Gr3 TEAE: Rhinitis allergic: 0 n
  Patients with Gr3 TEAE: Urinary tract infection: 0 n
  Patients with related Gr3 TEAE: ALL: 0 n
  Patients with related Gr3 TEAE: ALT increased: 0 n
  Patients with related Gr3 TEAE: AST increased: 0 n
  Patients with related Gr3 TEAE: Abdominal pain: 0 n
  Patients with related Gr3 TEAE: Abdominal pain upper: 0 n
  Patients with related Gr3 TEAE: Arthralgia: 0 n
  Patients with related Gr3 TEAE: Asthenia: 0 n
  Patients with related Gr3 TEAE: Back pain: 0 n
  Patients with related Gr3 TEAE: Constipation: 0 n
  Patients with related Gr3 TEAE: Cough: 0 n
  Patients with related Gr3 TEAE: Decreased appetite: 0 n
  Patients with related Gr3 TEAE: Depression: 0 n
  Patients with related Gr3 TEAE: Diarrhoea: 0 n
  Patients with related Gr3 TEAE: Dry skin: 0 n
  Patients with related Gr3 TEAE: Dyspnoea: 0 n
  Patients with related Gr3 TEAE: Fatigue: 0 n
  Patients with related Gr3 TEAE: Gastroesophageal reflux disease: 0 n
  Patients with related Gr3 TEAE: Headache: 0 n
  Patients with related Gr3 TEAE: Hot flush: 0 n
  Patients with related Gr3 TEAE: Hypertension: 0 n
  Patients with related Gr3 TEAE: Musculoskeletal pain: 0 n
  Patients with related Gr3 TEAE: Nasopharyngitis: 0 n
  Patients with related Gr3 TEAE: Nausea: 0 n
  Patients with related Gr3 TEAE: Pyrexia: 0 n
  Patients with related Gr3 TEAE: Rhinitis allergic: 0 n
  Patients with related Gr3 TEAE: Urinary tract infection: 0 n
  Patients with related Gr3 TEAE: Vomiting: 0 n
  Patients with related TEAE: ALT increased: 0 n
  Patients with related TEAE: AST increased: 0 n
  Patients with related TEAE: Back pain: 0 n
  Patients with related TEAE: Headache: 0 n
  Patients with related TEAE: Nasopharyngitis: 0 n
  Patients with related TEAE: Pyrexia: 0 n
  Patients with related TEAE: Rhinitis allergic: 0 n
[1]; Part B, N=49
  number of SAEs of grade ≥3: 14
[1]; Part B, not considered related
  laboratory abnormality reported as adverse event: alkaline phosphatase increase: 1
  laboratory abnormality reported as adverse event: hyperbilirubinemia: 2
  laboratory abnormality reported as adverse event: hypercalcemia: 1
  laboratory abnormality reported as adverse event: increase of alanine amino transferase: 3
  laboratory abnormality reported as adverse event: increase of aspartate amino transferase: 3
[1]; whole study
  related serious adverse events: no related serious adverse events
[2]; 400 mg, N=46, by ICR
  Complete Response (CR): 0 n
[2]; ESR1 mutated patients (3/19)
  Clinical Benefit Rate (CBR) assessed by ICR: 15.8%
[2]; patients with wild-type ESR1 (9/26)
  Clinical Benefit Rate (CBR) assessed by ICR: 34.6%
[3]; 400 mg PART B (N = 11)
  Best Overall Response: Complete Response (CR), number of patients: 0 n
  Best Overall Response: Partial Response (PR), % of patients: (27.3) %
  Best Overall Response: Partial Response (PR), number of patients: 3 n
  Best Overall Response: Progressive Disease (PD), % of patients: (18.2) %
  Best Overall Response: Progressive Disease (PD), number of patients: 2 n
  Best Overall Response: Stable Disease (SD), % of patients: (54.5) %
  Best Overall Response: Stable Disease (SD), number of patients: 6 n
  Clinical Benefit Rate, % of patients: (63.6) %
  Clinical Benefit Rate, number of patients: 7 n
  Overall Response Rate (confirmed CR and PR), % of patients: (27.3) %
  Overall Response Rate (confirmed CR and PR), number of patients: 3 n
[3]; [4]
  Best Overall Response: Complete Response (CR), number of patients: 0 n
  Best Overall Response: Partial Response (PR), % of patients: (21.4) %
  Best Overall Response: Partial Response (PR), number of patients: 3 n
  Best Overall Response: Progressive Disease (PD), % of patients: (21.4) %
  Best Overall Response: Progressive Disease (PD), number of patients: 3 n
  Best Overall Response: Stable Disease (SD), % of patients: (57.1) %
  Best Overall Response: Stable Disease (SD), number of patients: 8 n
  Clinical Benefit Rate, % of patients: (64.3) %
  Clinical Benefit Rate, number of patients: 9 n
  Overall Response Rate (confirmed CR and PR), % of patients: (21.4) %
  Overall Response Rate (confirmed CR and PR), number of patients: 3 n
[3]; [5]
  CBR: 35.6%
  ORR: 6.8%
[3]; [6]
  CBR: 64.3%
  ORR: 21.4%
[3]; [7]
  CBR: 46.9%
  ORR: 12.5%
[3]; ESR1 mutated patients (9/28)
  Clinical Benefit Rate (CBR): 32.1%
[3]; patients with wild-type ESR1 (12/30)
  Clinical Benefit Rate (CBR): 40.0%
[3]; pooled: All, N=59, by investigator
  Complete Response (CR): 0 n
[3]; pooled: Part A >=150 mg, N=13, by investigator
  Complete Response (CR): 0 n
[3]; pooled: Part B 400 mg, N=46, by investigator
  Complete Response (CR): 0 n
[3]; [8]
  ORR: 21.4%
  PD: 21.4%
  PRs: 21.4%
[3]; sub-population of 14 patients with neither prior targeted therapies nor SERD (9/14)
  CBR: 64.3%
[3]; ≤3 prior lines, not both chemotherapy and CDK4/6 inhibitor, no mTOR inhibitor: All, N=32
  Complete Response (CR): 0 n
[3]; ≤3 prior lines, not both chemotherapy and CDK4/6 inhibitor, no mTOR inhibitor: Part A ≥150 mg, N=6
  Complete Response (CR): 0 n
[3]; ≤3 prior lines, not both chemotherapy and CDK4/6 inhibitor, no mTOR inhibitor: Part B 400 mg, N=26
  Complete Response (CR): 0 n
[3]; ≥150 mg PART A (N = 3)
  Best Overall Response: Complete Response (CR), number of patients: 0 n
  Best Overall Response: Partial Response (PR), number of patients: 0 n
  Best Overall Response: Progressive Disease (PD), % of patients: 33.3%
  Best Overall Response: Progressive Disease (PD), number of patients: 1 n
  Best Overall Response: Stable Disease (SD), % of patients: 66.7%
  Best Overall Response: Stable Disease (SD), number of patients: 2 n
  Clinical Benefit Rate, % of patients: 66.7%
  Clinical Benefit Rate, number of patients: 2 n
  Overall Response Rate (confirmed CR and PR), number of patients: 0 n
